pIC50: −log10 of the molar value. Where no end group is shown, it is not given here.
Tests used:
[1] = target: HLA A2601 (Homo sapiens, UniProt P04439, A114D/A173T/A270S/D101N/D185E/E277Q/E87N/F33Y/G231S/I121R/I218V/K168Q/L180W/L300P/L318F/P208A/P217A/Q86R/Q94H/R138Q/S129P/T187R/T323A/T345S/V100A/V358M); test: HLA class I competition binding assay using soluble HLA
[2] = target: HLA A3002 (Homo sapiens, UniProt P04439, D101N/D140H/D185E/E176R/F33S/G80R/H175R/K168Q/Q94H/R138E/R41S/V100E); test: as above
[3] = target: HLA A2902 (Homo sapiens, UniProt P04439, A270S/D101N/D185E/E176V/E277Q/E87Q/F33T/G231S/H175R/I121M/I218V/I322F/K168Q/L300P/L318F/M331R/P208A/P217A/Q86L/T323A/T345S/V100A/V358M); test: as above
[4] = target: HLA A0203 (Homo sapiens, UniProt P04439, A173T/D140Y/D185E/D98H/E277Q/G131W/G231S/I119V/I121R/I166T/I218V/L180W/L300P/L318F/N151K/N90K/P208A/P217A/Q86G/Q94H/R138H/R169H/T345S); test: as above
[5] = target: HLA A0201 (Homo sapiens, UniProt P04439, D140Y/D185E/D98H/E176V/E277Q/G131W/G231S/I119V/I121R/I166T/I218V/L300P/L318F/N151K/N90K/P208A/P217A/Q86G/Q94H/R138H/R169H/T345S); test: as above
[6] = target: HLA A6802 (Homo sapiens, UniProt P04439, A269V/D140Y/D185E/E176V/E277Q/E87N/F33Y/G231S/I121R/I166T/I218V/L180W/L300P/L318F/N151K/P208A/P217A/Q86R/R138H/R169H/S129P/T345S/V36M); test: as above
[7] = target: HLA A3101 (Homo sapiens, UniProt P04439, A270S/D185E/E176V/E277Q/F33T/G231S/G80R/H175R/I121M/I218V/I322F/K168Q/L300P/L318F/M331R/P217A/Q94H/R138Q/T323A/T345S/T97I/V358M); test: as above
[8] = target: HLA A1101 (Homo sapiens, UniProt P04439, A114D/D185E/E176A/F33Y/L180Q/S129P/T187R); test: as above
[9] = target: HLA A6801 (Homo sapiens, UniProt P04439, A269V/D185E/E176V/E277Q/E87N/F33Y/G231S/I121M/I166T/I218V/L180W/L300P/L318F/N151K/P208A/P217A/Q86R/R169H/T345S); test: as above
[10] = target: DRB1*0901 (Homo sapiens, UniProt P01903+P01911, A100R/A103E/D57H/D86V/F55Y/F60I/F76Y/I96F/K127E/L162R/M171V/P40D/Q125H/Q99R/R33Q/R42F/S133A/S66N/T210M/V115G/W38K/Y107V/Y59G/Y89S); test: biochemical
[11] = target: DRB5*0101 (DR2w2beta-2) (Homo sapiens, UniProt P01903+Q30154); test: biochemical
[12] = target: HLA A3301 (Homo sapiens, UniProt P04439, A270S/D185E/E176V/E277Q/E87N/F33T/G231S/H175R/I121M/I218V/I322F/K168Q/K210R/L300P/L318F/M331R/P217A/Q86R/Q94H/R138Q/T323A/T345S/T97I/V358M/Y195H); test: HLA class I competition binding assay using soluble HLA
[13] = target: T1, HLA A0301 (Homo sapiens, UniProt P04439); test: as above
T1 construct: endogenous in cells

[14] = target: HLA A0202 (Homo sapiens, UniProt P04439, D140Y/D185E/D98H/E176V/E277Q/G131W/G231S/I119L/I121R/I166T/I218V/L180W/L300P/L318F/N151K/N90K/P208A/P217A/Q67R/Q86G/Q94H/R138H/R169H/T345S); test: as above
[15] = target: HLA A0206 (Homo sapiens, UniProt P04439, D140Y/D185E/D98H/E176V/E277Q/F33Y/G131W/G231S/I119V/I121R/I166T/I218V/L300P/L318F/N151K/N90K/P208A/P217A/Q86G/Q94H/R138H/R169H/T345S); test: as above

CC(C)C[C@H](NC(=O)CNC(=O)[C@@H](NC(=O)[C@H](CC(N)=O)NC(=O)[C@@H](NC(=O)[C@H](CC(C)C)NC(=O)[C@H](CCCCN)NC(=O)[C@H](CCC(=O)O)NC(=O)[C@H](CC(C)C)NC(=O)[C@@H](N)[C@@H](C)O)[C@@H](C)O)[C@@H](C)O)C(=O)N[C@@H](Cc1ccc(O)cc1)C(=O)O [compound 26]
pIC50 [1]: 6.58 | pIC50 [2]: 6.32 | pIC50 [3]: 5.62

CC[C@H](C)[C@H](NC(=O)[C@H](CC(=O)O)NC(=O)[C@H](CCC(N)=O)NC(=O)[C@H](CC(C)C)NC(=O)[C@@H](N)CO)C(=O)N[C@@H](CCC(=O)O)C(=O)N[C@H](C(=O)N[C@H](C(=O)N[C@@H](CS)C(=O)N[C@H](C(=O)O)C(C)C)[C@@H](C)O)[C@@H](C)CC [compound 30]
pIC50 [4]: 7.42 | pIC50 [5]: 6.82 | pIC50 [6]: < 4.70

CC[C@H](C)[C@H](N)C(=O)N[C@@H](CO)C(=O)N[C@@H](Cc1ccccc1)C(=O)N[C@@H](C)C(=O)NCC(=O)N[C@H](C(=O)N[C@H](C(=O)N[C@H](C(=O)N[C@@H](CCCCN)C(=O)O)[C@@H](C)O)C(C)C)[C@@H](C)CC [compound 57]
pIC50 [7]: 6.94 | pIC50 [8]: 8.80 | pIC50 [9]: 7.80

CC[C@H](C)[C@H](NC(=O)CNC(=O)[C@@H](NC(=O)[C@H](CCCCN)NC(=O)[C@H](Cc1ccc(O)cc1)NC(=O)[C@H](Cc1c[nH]c2ccccc12)NC(=O)[C@H](Cc1ccc(O)cc1)NC(=O)[C@@H](N)CC(C)C)[C@@H](C)O)C(=O)N[C@@H](CO)C(=O)N[C@@H](CC(N)=O)C(=O)N[C@H](C(=O)N[C@@H](CO)C(=O)N[C@@H](CCC(=O)O)C(=O)N[C@H](C(=O)N[C@@H](Cc1ccc(O)cc1)C(=O)O)C(C)C)[C@@H](C)CC [compound 89]
pIC50 [10]: 7.05

CC[C@H](C)[C@H](NC(=O)[C@@H](NC(=O)[C@H](CC(C)C)NC(=O)[C@H](CC(=O)O)NC(=O)[C@@H](NC(=O)[C@H](Cc1ccccc1)NC(=O)[C@H](C)NC(=O)[C@H](Cc1ccccc1)NC(=O)[C@H](CC(=O)O)NC(=O)[C@H](CC(C)C)NC(=O)[C@@H](N)C(C)C)[C@@H](C)O)[C@@H](C)O)C(=O)N[C@H](C(=O)N[C@@H](Cc1ccc(O)cc1)C(=O)N[C@@H](CCCNC(=N)N)C(=O)N[C@@H](CC(=O)O)C(=O)O)C(C)C [compound 111]
pIC50 [11]: < 4.70

CC[C@H](C)[C@H](NC(=O)[C@H](Cc1c[nH]cn1)NC(=O)[C@H](C)NC(=O)[C@H](Cc1ccc(O)cc1)NC(=O)[C@H](CC(C)C)NC(=O)[C@@H](NC(=O)[C@H](C)NC(=O)[C@@H]1CCCN1C(=O)[C@H](CCCCN)NC(=O)[C@@H](NC(=O)[C@H](CC(C)C)NC(=O)[C@@H](NC(=O)[C@H](CCCCN)NC(=O)[C@@H](N)Cc1ccccc1)[C@@H](C)O)[C@@H](C)CC)[C@@H](C)O)C(=O)N[C@@H](CCC(N)=O)C(=O)O [compound 115]
pIC50 [11]: 6.00

AATKYPLLK [compound 17]
pIC50 [7]: < 4.70 | pIC50 [8]: 7.70 | pIC50 [12]: < 4.70 | pIC50 [9]: < 4.70

ATCVSHRGLY [compound 25]
pIC50 [1]: 6.19

ATTPIIHLK [compound 58]
pIC50 [7]: 7.47 | pIC50 [8]: 8.92 | pIC50 [12]: < 4.70 | pIC50 [13]: 8.00 | pIC50 [9]: 8.60

AVMCRHYKR [compound 78]
pIC50 [8]: 7.42 | pIC50 [13]: 6.51 | pIC50 [9]: 7.54

CLYLHIQSL [compound 6]
pIC50 [14]: 7.35 | pIC50 [6]: 5.75 | pIC50 [15]: 7.00

ELDPVDLLCY [compound 71]
pIC50 [1]: 5.68 | pIC50 [2]: < 4.70

FIYIPLFVI [compound 52]
pIC50 [4]: 7.33 | pIC50 [5]: 7.59 | pIC50 [6]: 6.80 | pIC50 [15]: 8.09

FLFTDLTIV [compound 53]
pIC50 [4]: 8.46 | pIC50 [14]: 8.89 | pIC50 [6]: 5.72 | pIC50 [15]: 7.70

FVVYRDSIPK [compound 36]
pIC50 [7]: 8.10 | pIC50 [8]: 5.60 | pIC50 [12]: 6.33 | pIC50 [13]: 5.46 | pIC50 [9]: 6.75

FVYIPLFLI [compound 8]
pIC50 [4]: 7.20 | pIC50 [5]: 6.69 | pIC50 [14]: 6.49 | pIC50 [6]: 6.60

GTLGIVCPV [compound 11]
pIC50 [5]: 7.70

ILYAHIQCL [compound 27]
pIC50 [14]: 8.07 | pIC50 [6]: < 4.70 | pIC50 [15]: 6.63

KLLEKLLCI [compound 49]
pIC50 [4]: 8.62

KLLSKLLCV [compound 7]
pIC50 [5]: 7.51
